From US20150126530A1, “Novel Substituted Imidazopyrimidines as Gpbar1 Receptor Modulators” (Torrent Pharmaceuticals Limited., priority 2011, published 2015) come the findings set out here.

Molecules are shown by their SMILES. A value given as a limit tells only on which side of the number the result lay.

The target in the test is T1, human TGR5 (Homo sapiens, UniProt Q8TDU6).
T1 construct: host or cells: CHO cells (ATCC)
T1 sequence (Q8TDU6 1-330): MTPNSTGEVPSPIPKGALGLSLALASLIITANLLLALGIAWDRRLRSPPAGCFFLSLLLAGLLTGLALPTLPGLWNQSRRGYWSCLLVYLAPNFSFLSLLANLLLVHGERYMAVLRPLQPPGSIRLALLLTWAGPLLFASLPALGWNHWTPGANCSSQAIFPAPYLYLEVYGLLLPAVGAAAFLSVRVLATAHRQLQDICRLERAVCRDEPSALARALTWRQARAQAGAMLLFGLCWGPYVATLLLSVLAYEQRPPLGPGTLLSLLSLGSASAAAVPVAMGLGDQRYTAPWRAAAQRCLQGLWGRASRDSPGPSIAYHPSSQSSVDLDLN
The test can be described thus: cAMP Responsive Element (CRE)-Reporter Assay. In kind it is cell-based. The following applies: luciferase activity relative to vehicle control, five hours, CHO cells transfected with human TGR5 and CRE-luciferase. The procedure: (A) cAMP Responsive Element (CRE)-Reporter Assay:
CHO cells (ATCC) were transfected with human TGR5 (oriGene) and CRE-luciferase reporter vector. Transfected cells were treated with vehicle control or test compounds (Conc 10 μM) for five hours and then lysed. Cell lysates were monitored for luciferase acivity. Increase in luciferase activity is considered as a result of TGR5 activation. Results were expressed as fold induction as compared to vehicle control.
Results are summarized in Table 2 where, + indicates 1.5-2 fold while ++, +++, ++++ indicate 2-3 fold, 3-4 fold, and >4 fold induction respectively relative to vehicle control when tested at 10 μM concentration.
A general note: A reporter such as luciferase makes a cellular process visible.
For the molecule `CN(C(=O)c1c(-c2ccccc2)nc2ncccn12)c1cccc(Cl)c1` [Compound no. 2, N-(3-chlorophenyl)-N-methyl-2-phenylimidazo[1,2-a]pyrimidine-3-carboxamide], the fold induction – broadly, the ratio of treated to control signal – at 10 µM was 3 to 4.
With `CN(C(=O)c1c(-c2ccccc2)nc2ncccn12)c1ccc(CC(=O)O)cc1` [Compound no. 3, (4-{methyl[(2-phenylimidazo[1,2-a]pyrimidin-3-yl)carbonyl]amino}phenyl)acetic acid] the figure was 1.5 to 2; with `CN(C(=O)c1c(-c2ccc(Cl)cc2)nc2ncccn12)c1ccc2c(c1)CCC2` [Compound no. 4, 2-(4-chlorophenyl)-N-(2,3-dihydro-1H-inden-5-yl)-N-methylimidazo[1,2-a]pyrimidine-3-carboxamide], 3 to 4.
Then `CN(C(=O)c1c(-c2ccc(Cl)cc2)nc2ncccn12)c1ccc(Cl)cc1` [Compound no. 5, N,2-bis(4-chlorophenyl)-N-methylimidazo[1,2-a]pyrimidine-3-carboxamide], with above 4; and `CN(C(=O)c1c(-c2ccc(F)cc2)nc2ncccn12)c1ccc2c(c1)CCC2` [Compound no. 6, N-(2,3-dihydro-1H-inden-5-yl)-2-(4-fluorophenyl)-N-methylimidazo[1,2-a]pyrimidine-3-carboxamide], with 3 to 4; and `CN(C(=O)c1c(-c2ccccn2)nc2ncccn12)c1ccc(Cl)cc1` [Compound no. 11, N-(4-chlorophenyl)-N-methyl-2-(pyridin-2-yl)imidazo[1,2-a]pyrimidine-3-carboxamide], with 1.5 to 2.
As for `CN(C(=O)c1c(Oc2ccc(F)cc2)nc2ncccn12)c1ccc(F)cc1F` [Compound no. 46, N-(2,4-difluorophenyl)-2-(4-fluorophenoxy)-N-methylimidazo[1,2-a]pyrimidine-3-carboxamide], the fold induction at 10 µM fell in the range of 2 to 3.
Molecule `CN(C(=O)c1c(-c2ccc(-c3ccccc3)cc2)nc2ncccn12)c1ccc(Cl)cc1` [compound 8, 2-(biphenyl-4-yl)-N-(4-chlorophenyl)-N-methylimidazo[1,2-a]pyrimidine-3-carboxamide] yielded a fold induction at 10 µM of 3 to 4.
Then `CN(C(=O)c1c(-c2ccc(-c3ccccc3)cc2)nc2ncccn12)c1ccc2c(c1)CCC2` [compound 9, 2-(biphenyl-4-yl)-N-(2,3-dihydro-1H-inden-5-yl)-N-methylimidazo[1,2-a]pyrimidine-3-carboxamide], with 2 to 3; and `COc1ccc(-c2nc3ncccn3c2C(=O)N(C)c2ccc(Cl)cc2)cc1OC` [compound 10, N-(4-chlorophenyl)-2-(3,4-dimethoxyphenyl)-N-methylimidazo[1,2-a]pyrimidine-3-carboxamide], with 3 to 4.
With `CN(C(=O)c1c(-c2ccccc2)nc2ncc(-c3ccccc3)cn12)c1ccc(Cl)cc1` [compound 12, N-(4-chlorophenyl)-N-methyl-2,6-diphenylimidazo[1,2-a]pyrimidine-3-carboxamide] the figure was 2 to 3; with `COc1ccc(-c2nc3ncccn3c2C(=O)N(C)c2ccc3c(c2)CCC3)cc1OC` [compound 13, N-(2,3-dihydro-1H-inden-5-yl)-2-(3,4-dimethoxyphenyl)-N-methylimidazo[1,2-a]pyrimidine-3-carboxamide], 3 to 4.
The molecule `CN(C(=O)c1c(-c2ccc(Cl)c(Cl)c2)nc2ncccn12)c1ccc(Cl)cc1` [compound 14, N-(4-chlorophenyl)-2-(3,4-dichlorophenyl)-N-methylimidazo[1,2-a]pyrimidine-3-carboxamide] displayed a fold induction at 10 µM of 3 to 4.
Turning to `CN(C(=O)c1c(-c2ccc(O)c(O)c2)nc2ncccn12)c1ccc2c(c1)CCC2` [compound 15, N-(2,3-dihydro-1H-inden-5-yl)-2-(3,4-dihydroxyphenyl)-N-methylimidazo[1,2-a]pyrimidine-3-carboxamide], the fold induction at 10 µM lay within 2 to 3.
Then `COc1ccc(-c2nc3ncccn3c2C(=O)N(C)c2ccc(Cl)cc2)cc1` [compound 16, N-(4-chlorophenyl)-2-(4-methoxyphenyl)-N-methylimidazo[1,2-a]pyrimidine-3-carboxamide], with 2 to 3; and `CN(C(=O)c1c(-c2ccccn2)nc2ncccn12)c1ccc2c(c1)CCC2` [compound 17, N-(2,3-dihydro-1H-inden-5-yl)-N-methyl-2-(pyridin-2-yl)imidazo[1,2-a]pyrimidine-3-carboxamide], with 2 to 3.
Regarding `CN(C(=O)c1c(-c2ccc(Cl)cc2)nc2ncccn12)c1ccc(F)cc1` [compound 18, 2-(4-chlorophenyl)-N-(4-fluorophenyl)-N-methylimidazo[1,2-a]pyrimidine-3-carboxamide], the fold induction at 10 µM lay within 2 to 3.
Turning to `COc1ccc(N(C)C(=O)c2c(-c3ccc(Cl)cc3)nc3ncccn23)cc1OC` [compound 19, 2-(4-chlorophenyl)-N-(3,4-dimethoxyphenyl)-N-methylimidazo[1,2-a]pyrimidine-3-carboxamide], the fold induction at 10 µM was 2 to 3.
Then `CN(C(=O)c1c(-c2cccnc2)nc2ncccn12)c1ccc(Cl)cc1` [compound 20, N-(4-chlorophenyl)-N-methyl-2-(pyridin-3-yl)imidazo[1,2-a]pyrimidine-3-carboxamide], with 2 to 3.
Molecule `CN(C(=O)c1c(-c2ccc(Cl)cc2Cl)nc2ncccn12)c1ccc(F)cc1` [compound 21, 2-(2,4-dichlorophenyl)-N-(4-fluorophenyl)-N-methylimidazo[1,2-a]pyrimidine-3-carboxamide] gave a fold induction at 10 µM of 3 to 4.
With `CN(C(=O)c1c(-c2ccccc2C(F)(F)F)nc2ncccn12)c1ccc(Cl)cc1` [compound 23, N-(4-chlorophenyl)-N-methyl-2-[2-(trifluoromethyl)phenyl]imidazo[1,2-a]pyrimidine-3-carboxamide] the figure was 3 to 4; with `CN(C(=O)c1c(-c2ccc(Cl)cc2)nc2ncccn12)c1ccc(S(=O)(=O)N(C)C)cc1` [compound 24, 2-(4-chlorophenyl)-N-[4-(dimethylsulfamoyl)phenyl]-N-methylimidazo[1,2-a]pyrimidine-3-carboxamide], 2 to 3; with `COc1ccc(N(C)C(=O)c2c(-c3ccc(Cl)cc3)nc3ncccn23)c(OC)c1` [compound 25, 2-(4-chlorophenyl)-N-(2,4-dimethoxyphenyl)-N-methylimidazo[1,2-a]pyrimidine-3-carboxamide], 2 to 3.
`CN(C(=O)c1c(-c2ccccc2)nc2ncccn12)c1ccc(F)cc1` [compound 26, N-(4-fluorophenyl)-N-methyl-2-phenylimidazo[1,2-a]pyrimidine-3-carboxamide] came in with a fold induction at 10 µM of 2 to 3.
With `CN(C(=O)c1c(-c2ccc(Cl)cc2)nc2ncccn12)c1ccc(O)c(O)c1` [compound 27, 2-(4-chlorophenyl)-N-(3,4-dihydroxyphenyl)-N-methylimidazo[1,2-a]pyrimidine-3-carboxamide] the figure was 1.5 to 2.
Then `CN(C(=O)c1c(-c2ccc3c(c2)OCO3)nc2ncccn12)c1ccc(Cl)cc1` [compound 29, 2-(1,3-benzodioxol-5-yl)-N-(4-chlorophenyl)-N-methylimidazo[1,2-a]pyrimidine-3-carboxamide], with 3 to 4.
